“Also recorded” adds a separate entry of the source. Where two headings read alike, the source gives them in different places.
What was measured:
[1] = tested on: MCF-7 (breast) cancer cells; test: MTT antiproliferative assay, MCF-7 breast carcinoma; format: cell-based, human; conditions: 48 h incubation, MCF-7 cells, read-out: IC50 for the Different Carcinoma Cell Lines, MCF-7 (Breast)
Experimental: (§1) The antiproliferative activity of compounds was measured using MTT (3-(4, 5-dimethylthiazol-2-yl)-2,5-diphenyltetrazolium bromide) assay. A549 (lung), HepG2 (liver), and MCF-7 (breast) cancer cells were purchased from the American Type Cell Collection (ATCC, Manassas, VA, USA). The cells were seeded at 5 × 10^4 cells/well (in 100 μL of DMEM) in 96-well microplates. After 24 h incubation at 37 °C, serial dilution (15–250 µM) of each compound was added and incubated for 48 h. Thereafter, 10 μL of the MTT solution (5 mg/mL) was added to each well. After 4 h incubation with the MTT solution, a volume of 100 μL of acidified isopropanol was added to solubilize the formazan product and incubated on a shaker for a further 10 min. Reduced MTT was assayed at 570 nm using a microplate reader (BioTek, Winoosky, VT, USA). Control groups received the same amount of DMSO (0.1%), untreated cells were used as a negative control, whereas cells treated with doxorubicin were used as a positive control. The IC50 (concentration that caused more than 50% inhibition of proliferation) was calculated from a dose-dependent curve. The cell viability percent was calculated = mean absorbance of treated sample/mean absorbance of control ×100.

[2] = tested on: HepG2 (liver) cancer cells; test: MTT antiproliferative assay, HepG2 liver carcinoma; format: cell-based, human; conditions: 48 h incubation, read-out: IC50 for the Different Carcinoma Cell Lines, HepG2 (Liver)
Experimental: as §1

A549 (lung) cancer cells = test: MTT antiproliferative assay, A549 lung carcinoma; format: cell-based, human; conditions: 48 h incubation, read-out: IC50 for the Different Carcinoma Cell Lines, A549 (Lung)
Experimental: as §1

zebrafish embryos = test: Zebrafish embryo toxicity screening; format: in vivo; conditions: for observable toxicity / development of treated zebrafish embryos: up to 3 days post treatment
Text: Wild-type zebrafish strain AB/Tuebingen TAB-14(AB/TuebingenTAB-14) (Catalog ID: ZL1438) were obtained from zebrafish international resource center and grown in an animal facility at the Department of Zoology, King Saud University, Riyadh, Kingdom of Saudi Arabia. The fish were maintained and bred following guidelines of the Institutional Animal Care and Use Committee (ICUAC) and zebrafish book. The fertilized embryos were obtained by natural pairwise breeding of adult fish. The fertilized embryos were sorted, dead embryos were removed, and synchronous stage embryos were used for screening.
A stock solution of 25 mM was made by dissolving the compounds in molecular biology grade DMSO (Sigma Aldrich, St. Louis, MI, USA). Zebrafish embryos were exposed to serial dilution (1, 5, 15, 45, 150, and 300 µM) of each compound. The embryos were remained exposed to the compounds for 3 days, and the embryos medium containing the compounds were changed every day. The response of the embryos toward mortality, and embryonic toxicity (teratogenicity) was monitored once after 12 h and then after every 24 h until the end of the experiment. The experiment was repeated at least three times (triplicate biological repeats) by using a new batch of embryos every time. LC50 for zebrafish embryonic toxicity was calculated by using an updated Probit analysis by Finney method.

SMILES | IC50 ([1]; Homo sapiens, MCF7, 48 h) [µM] | IC50 ([2]; Homo sapiens, HepG2, 48 h) [µM] | IC50 (A549 (lung) cancer cells; Homo sapiens, A549, 48 h) [µM] | toxicity in zebrafish embryos (zebrafish embryos; more than 200 µM compound, after 2 days post treatment) | IC50 [1] [µM] | IC50 [2] [µM] | IC50 (A549 (lung) cancer cells) [µM] | death of treated embryos (zebrafish embryos; after 24 h post treatment, initial development normal) [%] | observable toxicity / development of treated zebrafish embryos (zebrafish embryos)
COc1cccc2c1C(=O)c1c(O)c3c(c(O)c1C2=O)C[C@@](O)(C(=O)CO)C[C@@H]3O[C@H]1C[C@H](N)[C@H](O)[C@H](C)O1 [Doxorubicin, doxorubicin, reference compound] | 1.9 ± 0.05 | 2.2 ± 0.15 | 2.1 ± 0.08 | – | – | – | – | – | –
Cc1c2c(cc3c1[C@@H](O)COC3=O)CC(C)(C)C2 [Compound 1, asperorlactone] | < 100 | < 100 | < 100 | cardiac toxicity (cardiac edema and cardiac hypertrophy | 106 ± 4.2 | 86.6 ± 3.2 | 72.7 ± 1.1 | – | –
CC(=O)OCc1cc(=O)occ1O [Compound 4, (5-hydroxy-2-oxo-2H-pyran-4-yl)methyl acetate] | 171 ± 4.5 | 127 ± 6.4 | 89.4 ± 2.3 | – | – | – | – | 100 | found dead on day 2
O=Cc1ccc(O)cc1 [Compound 5, 4-hydroxybenzaldehyde] | 158 ± 5.5 | 243 ± 6.4 | 97.5 ± 2.6 | – | – | – | – | – | did not exhibit any observable toxicity; also recorded: developed normally
O=c1cc(CO)c(O)co1 [Compound 3, 4-(hydroxymethyl)-5-hydroxy-2H-pyran-2-one] | 225 ± 5.1 | 220 ± 3.6 | 208 ± 6.8 | – | – | – | – | – | did not exhibit any observable toxicity; also recorded: developed normally
Cc1c2c(cc3c1CCOC3=O)C[C@](C)(CO)C2 [Compound 2, echinolactone D] | 128 ± 2.8 | 148 ± 5.6 | 55.7 ± 2.5 | – | – | – | – | – | did not exhibit any observable toxicity; also recorded: developed normally

— article PMC8230370, “Antiproliferative Illudalane Sesquiterpenes from the Marine Sediment Ascomycete Aspergillus oryzae” (Marine Drugs, 2021)
